This note sets out measurements from patent US5635537A, “8-substituted-2-aminotetralins” (Astra Aktiebolag, priority 1989, dated 1997).

This assay has as its target T1, 5HT1A (Rattus norvegicus, UniProt P19327).
T1 construct: Cerebral cortex + hippocampus from each rat was dissected and homogenized; from tissue; host or cells: rat cerebral cortex + hippocampus homogenate
T1 sequence (P19327 1-422): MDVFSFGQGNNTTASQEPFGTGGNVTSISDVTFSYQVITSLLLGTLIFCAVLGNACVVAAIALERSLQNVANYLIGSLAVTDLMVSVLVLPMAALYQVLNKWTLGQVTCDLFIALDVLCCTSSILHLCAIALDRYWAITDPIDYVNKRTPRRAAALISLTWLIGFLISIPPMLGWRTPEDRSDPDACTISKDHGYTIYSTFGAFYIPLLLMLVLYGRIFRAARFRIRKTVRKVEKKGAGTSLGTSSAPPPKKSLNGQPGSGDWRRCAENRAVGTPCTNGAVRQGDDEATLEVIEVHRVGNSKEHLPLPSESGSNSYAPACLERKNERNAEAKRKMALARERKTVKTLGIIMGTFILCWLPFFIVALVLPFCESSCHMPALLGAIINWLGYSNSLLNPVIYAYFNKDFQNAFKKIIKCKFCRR
The assay can be described thus: 5HT1A binding assay (receptor binding, 3H-8-OH-DPAT, rat cerebral cortex + hippocampus). The following applies: 3H-8-OH-DPAT (0.25 to 8 nM), rat cerebral cortex + hippocampus homogenate, 37° C., 10 min, pH 7.5. The method, then:
Another observation is that some of these compounds have a particularly good oral bioavailability. In order to evaluate the affinity for this subgroup of/the 5-HT-receptors, the effects on various receptors in rat brain were measured in vitro using receptor assays (Ki nM).
5HT1A binding assay. Cerebral cortex + hippocampus from each rat was dissected and homogenized in 15 ml ice-cold 50 mM Tris-HCl buffer 4.0 mM CaCl2 and 5.7 mM ascorbic acid, pH 7.5 with an Ultra-Turrax (Janke & Kunkel, Staufen, FRG) for ten s. After centrifugation for 12.5 min at 17,000 rpm (39,800×g in a Beckman centrifuge with a chilled JA-17 rotor (Beckman, Palo Alto, Calif., USA), the pellets were resuspended in the same buffer and homogenization and centrifugation repeated. To each pellet 5 ml ice-cold 0.32M sucrose were added and homogenized for 5 sec. These samples were kept frozen at -70° C. When used they were diluted with the buffer to 8 mg tissue/ml and homogenized for 10 sec.
The tissue homogenates were incubated for ten min at 37° C. and then supplied with 10 μM pargyline followed by reincubation for 10 min.
The binding assay followed that described by Peroutka, J. Neurochem. 47, 529-540, (1986). The incubation mixture (2 ml) contained ^3 H-8-OH-DPAT (0.25 to 8 nM), 5 mg/ml tissue homogenate in 50 mM Tris-HCl buffer containing 4.0 mM CaCl2 and 5.7 mM ascorbic acid, pH 7.5. Six different concentrations of ^3 H-8-OH-DPAT were analyzed. Binding experiments were started by the addition of tissue homogenate and followed by incubation at 37° C. for ten min. The incubation mixtures were filtered through Whatman GF/B glass filters with a Brandel Cell Harvester (Gaithersburg, Md., USA). The filters were washed twice with 5 ml ice-cold 50 mM Tria-HCl buffer, pH 7.5, and counted with 5 ml Ready-solv HP (Beckman) in a Beckman LS 3801 scintillation counter. Non-specific binding was measured by the addition of 10 μM 5-HT to the reaction mixture. The binding data was processed by non-linear least squares computer/analysis (Munson and Rodbard, Anal. Biochem. 107, 220-239, (1980).

Structures can show the parent of a compound that is named as a salt.

On to `CCCN(CCC)C1CCc2cccc(C(C)=O)c2C1` (racemic) [Example 2, (±)-8-Acetyl-2-(dipropylamino)tetralin hydrochloride], for which the Ki is 0.9 nM.

As to `CCCN(CCC)C1CCc2cccc(-c3ccco3)c2C1` (racemic) [Example 11, (±)-8-(2-Furanyl)-2-(dipropylamino)tetralin oxalate], the Ki was found to be 1.5 nM.

In the case of `CCCN(CCC)C1CCc2cccc(C(C)=O)c2C1` (single isomer, unassigned; (+)) [Example 6, (+)-8-Acetyl-2-(dipropylamino)tetralin hydrochloride], the Ki worked out at 1.7 nM.
